Test results taken from ChEMBL document CHEMBL5329153, “Is structural hybridization invoking new dimensions for antimalarial drug discovery research?” (RSC Med Chem, 2023).
In brackets after ≈: the same amount, converted by molar mass.

What was measured:
[1] = tested on: Plasmodium falciparum; test: Antimalarial activity against Chloroquine resistant Plasmodium falciparum W2 assessed as parasitic growth inhibition; type: functional, organism-based
[2] = tested on: Plasmodium falciparum; test: Antimalarial activity against Chloroquine sensitive Plasmodium falciparum D6 assessed as parasitic growth inhibition; type: functional, organism-based
[3] = tested on: Plasmodium falciparum; test: Potency index, ratio of chloroquine IC50 to test compound IC50 for antimalarial activity against Chloroquine resistant Plasmodium falciparum W2 assessed as parasitic growth inhibition; type: functional
[4] = tested on: Plasmodium falciparum; test: Potency index, ratio of chloroquine IC50 to test compound IC50 for antimalarial activity against Chloroquine sensitive Plasmodium falciparum D6 assessed as parasitic growth inhibition; type: functional
[5] = tested on: Plasmodium falciparum; test: Antimalarial activity against Chloroquine sensitive Plasmodium falciparum RKL-2 assessed as parasitic growth inhibition measured after 36 to 40 hrs by Giemsa staining based assay; type: functional, organism-based
[6] = tested on: Plasmodium falciparum; test: Antimalarial activity against chloroquine sensitive Plasmodium falciparum 3D7 assessed as parasitic growth inhibition by SYBR Green I dye based assay; type: functional, organism-based
[7] = tested on: Plasmodium falciparum; test: Antimalarial activity against Chloroquine sensitive Plasmodium falciparum assessed as parasitic growth inhibition; type: functional, organism-based
[8] = tested on: Plasmodium falciparum; test: Antimalarial activity against mefloquine resistant Plasmodium falciparum F32 assessed as parasitic growth inhibition measured after 48 hrs; type: functional, organism-based; conditions: F32, 48 h
[9] = tested on: Plasmodium falciparum; test: Antimalarial activity against chloroquine resistant Plasmodium falciparum K1 assessed as parasitic growth inhibition measured after 48 hrs; type: functional, organism-based; conditions: K1, 48 h
[10] = tested on: Plasmodium falciparum; test: Antimalarial activity against mefloquine resistant Plasmodium falciparum FcB1 assessed as parasitic growth inhibition measured after 48 hrs; type: functional, organism-based; conditions: FcB1, 48 h
[11] = tested on: Plasmodium falciparum; test: Antimalarial activity against mefloquine resistant Plasmodium falciparum Thai assessed as parasitic growth inhibition measured after 48 hrs; type: functional, organism-based
[12] = tested on: Plasmodium falciparum; test: Antimalarial activity against chloroquine resistant Plasmodium falciparum FcB1 assessed as parasitic growth inhibition measured after 48 hrs; type: functional, organism-based; conditions: FcB1, 48 h
[13] = tested on: Plasmodium falciparum; test: Antimalarial activity against mefloquine resistant Plasmodium falciparum K1 assessed as parasitic growth inhibition measured after 48 hrs; type: functional, organism-based; conditions: K1, 48 h
[14] = tested on: Plasmodium falciparum; test: Antimalarial activity against chloroquine resistant Plasmodium falciparum Thai assessed as parasitic growth inhibition measured after 48 hrs; type: functional, organism-based
[15] = tested on: Plasmodium falciparum; test: Antimalarial activity against chloroquine resistant Plasmodium falciparum F32 assessed as parasitic growth inhibition measured after 48 hrs; type: functional, organism-based; conditions: F32, 48 h
[16] = tested on: Plasmodium falciparum; test: Antimalarial activity against Chloroquine-pyrimethamine sensitive Plasmodium falciparum D6 assessed as parasitic growth inhibition measured after 48 hrs; type: functional, organism-based; conditions: D6, 48 h
[17] = tested on: Plasmodium falciparum; test: Antimalarial activity against Chloroquine-pyrimethamine resistant Plasmodium falciparum W2 assessed as parasitic growth inhibition measured after 48 hrs; type: functional, organism-based; conditions: W2, 48 h
[18] = tested on: Hemozoin; test: Inhibition of beta-hematin formation
[19] = tested on: Plasmodium falciparum; test: Antimalarial activity against Plasmodium falciparum 3D7 assessed as parasitic growth inhibition measured after 72 hrs by SYBR Green dye based assay; type: functional, organism-based; conditions: 3D7, 72 h
[20] = tested on: Plasmodium falciparum; test: Antimalarial activity against Chloroquine resistant Plasmodium falciparum assessed as parasitic growth inhibition by microscopic anlaysis; type: functional, organism-based
[21] = tested on: Plasmodium falciparum; test: Antimalarial activity against Chloroquine sensitive Plasmodium falciparum 3D7 assessed as parasitic growth inhibition measured after 24 hrs; type: functional, organism-based; conditions: 3D7, 24 h
[22] = tested on: Plasmodium falciparum; test: Potency index, ratio of mefloquine IC50 to test compound IC50 for antimalarial activity against Plasmodium falciparum female gametocytes assessed as parasitic growth inhibition; type: functional
[23] = tested on: Plasmodium falciparum; test: Potency index, ratio of artesunate IC50 to test compound IC50 for antimalarial activity against Plasmodium falciparum female gametocytes assessed as parasitic growth inhibition; type: functional
[24] = tested on: Plasmodium falciparum; test: Antimalarial activity against Plasmodium falciparum female gametocytes assessed as parasitic growth inhibition; type: functional, organism-based
[25] = tested on: Plasmodium falciparum; test: Antimalarial activity against Plasmodium falciparum male gametocytes assessed as parasitic growth inhibition by exflagellation assay; type: functional, organism-based
[26] = tested on: Plasmodium falciparum; test: Antimalarial activity against Plasmodium falciparum male gametocytes assessed as parasitic growth inhibition; type: functional, organism-based
[27] = tested on: Plasmodium falciparum; test: Antimalarial activity against Plasmodium falciparum 3D7 assessed as parasitic growth inhibition; type: functional, organism-based
[28] = tested on: Plasmodium falciparum; test: Antimalarial activity against Plasmodium falciparum Dd2 assessed as parasitic growth inhibition; type: functional, organism-based
[29] = tested on: Plasmodium falciparum; test: Antimalarial activity against Plasmodium falciparum K1 assessed as parasitic growth inhibition; type: functional, organism-based
[30] = tested on: Plasmodium falciparum; test: Antimalarial activity against Chloroquine resistant Plasmodium falciparum Dd2 assessed as parasitic growth inhibition measured after 3 days by ELISA assay; type: functional, organism-based; conditions: Dd2, 72 h
[31] = tested on: Plasmodium falciparum; test: Antimalarial activity against Chloroquine sensitive Plasmodium falciparum 3D7 assessed as parasitic growth inhibition measured after 3 days by ELISA assay; type: functional, organism-based; conditions: 3D7, 72 h

With Cc1cc(NCCCCNc2ccnc3cc(Cl)ccc23)nc(Nc2ccc(C(=O)N3CCOCC3)cc2)n1 the IC50 [1] was 33 nM, the IC50 [2] was 32 nM and the “Ratio IC50” value [3] was 11. The “Ratio IC50” value [4] was 11.

For Fc1ccc(Nc2nc(NCCCNc3ccnc4cc(Cl)ccc34)nc(Nc3ccc(F)c(Cl)c3)n2)cc1Cl, the IC50 [5] was 56 µg/mL (≈ 93 µM).

With CCCCNc1c2ccc(Cl)cc2nc2ccc(OC)cc12 the IC50 [6] was 26.4 nM.

Work on COc1ccc2nc3cc(Cl)ccc3c(NCC3C(=O)c4ccc5c6c(ccc(c46)C3=O)C(=O)N(CCn3ccnc3)C5=O)c2c1 yielded an IC50 [6] of 8.44 nM.

CC1=C(C(=O)Nc2ccc(Br)cn2)C(c2cn(-c3ccccc3)nc2-c2ccc(F)cc2)NC(=O)N1 (stereo not given) was tested, and the IC50 [7] was 0.07 µg/mL (≈ 0.128 µM).

Compound CC1=C(CN2CCCCC2C(O)c2cc(C(F)(F)F)nc3c(C(F)(F)F)cccc23)[C@@H]2C[C@@H](C)C[C@@H]3C[C@]4(C)CC[C@@H](O1)[C@@]32OO4 (stereo not given in full) has an IC50 [8] of 2.4 nM, an IC50 [9] of 2.4 nM and an IC50 [10] of 2.4 nM. The IC50 [11] was 2.4 nM, the IC50 [12] was 2.4 nM and the IC50 [13] was 2.4 nM. For the same compound, the IC50 [14] was 2.4 nM and the IC50 [15] was 2.4 nM.

N=C(N=C(N)N)SCCNc1ccnc2cc(Cl)ccc12 showed an IC50 [16] of 2250 nM and an IC50 [17] of 3710 nM.

In the case of COc1ccc(OC)c2c1CC(Nc1ccnc3cc(Cl)ccc13)C2, the IC50 [18] is reported as 480 nM.

Clc1ccc2c(NCCCNc3nc(Nc4ccc(N5CCOCC5)cc4)nc(Nc4ccc(N5CCOCC5)cc4)n3)ccnc2c1 gave an IC50 [5] of 47.5 µg/mL (≈ 71.2 µM).

Compound C[C@H]1[C@H](OC(=O)CCC(=O)Oc2ccc(Nc3ncnc4ccccc34)cc2)O[C@@H]2O[C@@]3(C)CC[C@H]4[C@H](C)CC[C@@H]1[C@@]24OO3 has an EC50 [19] of 3.8 nM.

Work on C[C@H]1[C@H](OC(=O)CCC(=O)Nc2cccc3ncnc(Nc4ccc(Cl)c(Cl)c4)c23)O[C@@H]2O[C@@]3(C)CC[C@H]4[C@H](C)CC[C@@H]1[C@@]24OO3 yielded an EC50 [19] of 1.4 nM.

Compound CCCCN1C(=O)c2ccc3c4c(ccc(c24)C1=O)C(=O)C(CCNc1c2ccc(Cl)cc2nc2ccc(OC)cc12)C3=O has an IC50 [6] of 3.89 nM.

In the case of COc1ccc2nc3cc(Cl)ccc3c(NCC3C(=O)c4ccc5c6c(ccc(c46)C3=O)C(=O)N(CN(C)C)C5=O)c2c1, the IC50 [6] is reported as 4.33 nM.

CCCCNC(=S)NNC(=O)c1cc(-c2ccc(F)cc2)nc2c(Cl)cc(C(F)(F)F)cc12 gave an IC50 [20] of 0.28 µg/mL.

Work on Cc1ccc(-c2nn(-c3nc4ccccc4s3)cc2/C=N\c2cccc(Cl)c2)cc1 yielded an EC50 [21] of 1950 nM.

C[C@H]1[C@@H](OC(=O)CCC(=O)O)O[C@@H]2C[C@@]3(C)CC[C@H]4[C@H](C)CC[C@@H]1[C@@]24OO3.Cc1cccc2c(C(O)C3CCCCN3)cc(C(F)(F)F)nc12 (racemic) was tested, and the “Ratio IC50” value [22] was 280, the “Ratio IC50” value [23] was 15 and the IC50 [24] was 20 nM. It also gave an IC50 [25] of 17 nM and an IC50 [26] of 4600 nM.

For C[C@@H]1CC[C@H]2[C@@H](C)C(=O)O[C@@H]3O[C@@]4(C)CC[C@@H]1[C@]32OO4 [ARTEMISININ], the IC50 [24] was 300 nM, the IC50 [25] was 120 nM and the IC50 [26] was 12700 nM.

CCN(CC)CCCC(C)Nc1ccnc2cc(Cl)ccc12 (stereo not given) [CHLOROQUINE] showed an EC50 [27] of 12.7 nM, an IC50 [18] of 180 nM and an EC50 [19] of 9.8 nM. The EC50 [28] was 165 nM and the EC50 [29] was 303 nM.

With OC(c1cc(C(F)(F)F)nc2c(C(F)(F)F)cccc12)C1CCCCN1 (stereo not given) [MEFLOQUINE] the IC50 [24] was 5600 nM and the IC50 [26] was 16500 nM.

COc1cc(NC(C)CCCN)c2ncccc2c1 (stereo not given) [PRIMAQUINE] showed an IC50 [30] of 4300 nM and an IC50 [31] of 1500 nM.

With CCc1nc(N)nc(N)c1-c1ccc(Cl)cc1 [PYRIMETHAMINE] the IC50 [7] was 0.25 µg/mL (≈ 1.01 µM).

For C=C[C@H]1CN2CC[C@H]1C[C@H]2[C@H](O)c1ccnc2ccc(OC)cc12 [QUININE], the IC50 [20] was 0.268 µg/mL.
